Laboratory results reported in US20200316207A1, “POLYMERIC BILE ACID NANOPARTICLES AS ANTI-INFLAMMATORY AGENTS” (Yale University, priority 2015, published 2020).

How the values were obtained:
[1] = Loading of dye/agents in NPs; type: physicochemical
Method: Polymer Synthesis and Nanoparticle (NP) formulation. […] Chloroform was utilized as the mobile phase with a flow rate of 1 mL/min and both the columns and RI detector were maintained at 40° C. MW characteristics were determined relative to a calibration curve generated from narrow polydispersity polystyrene standards (Aldrich Chemical). […] Polymers or the mixture (100 mg) was dissolved in 2 mL chloroform containing DIR (1 mg), coumarin 6 (10 mg), RAPA (10 mg) or iron oxide (1 mg). Phosphate-buffered saline (PBS, 100 μL) or the PBS containing INS (10 μg) was added dropwise to the chloroform polymer solution while vortexing and homogenized using an IKA T25 Digital Ultra-Turrax (IKA). This dispersant phase was then added dropwise to a continuous phase of 5% PVA and homogenized. The mixture was then added dropwise to 200 mL of 0.2% PVA and left stirring for 2 h to evaporate the solvent. NPs were collected by centrifugation at 12,000 rpm for 20 min at 4° C. and then washed 3 times with deionized water. The particles were lyophilized and stored at −20° C. The hydrodynamic diameter and surface charge of NPs were measured by a Malvern Zetasizer. A dispersion of NPs was filtrated through a 0.45 μm Millipore filter into cuvettes prior to the measurements. […] The morphology of the NPs was observed by Hitachi S-4800 High Resolution scanning electron microscopy (SEM, Norcross). A dispersion of NPs in ethanol (2 μL) was placed on the wafer substrate and dried at room temperature. The sample was mounted on the aluminum sample holder and then gold sputtered. […] NPs were dispersed in the media (citrate buffer solution, pH 2.0) at 37° C. in the presence of pepsin (10 mg/mL). At each time point, NPs were centrifuged, and supernatant was collected to measure the amount of DIR released from the particles using a plate reader (λex 750 nm, λem 790 nm, SpectraMax M5, Molecular Devices). Insulin release was quantified by the BCA assay.

[2] = Biodistribution and clearance of dye-loaded NPs after oral gavage; type: in vivo, mice; conditions: pancreas
Method: B6, NOD, or Nude mice were fasted for 4 h and treated with DIR- or coumarin 6-encapsulating NPs by oral gavage (50, 100, or 500 mg/kg, 250 μL). Free DIR or coumarin 6 (solubilized with 1% Tween 20) served as controls. […] Fluorescence data was fit to the one component exponential decay model: Y=Yf+(Yo−e^−kt).
Biodistribution in animals was conducted using fluorescent dye loaded pBA NPs. Animals were first fasted for 4 h prior to the experiment then orally gavaged with the NP formulations in saline followed by resumption of normal food and water. At 4 h post gavage, animals were euthanized, and organs were harvested to be fluorescently imaged. Quantitative fluorescence was conducted with a multispectral imaging platform (Bruker multispectral MS FX PRO imaging system).

rat microglia = conditions: cited from earlier work
[3] = tested on: fibroblasts from patients with either sporadic or familial Alzheimer's disease; conditions: cited from earlier work
[4] = tested on: mouse pancreatic β cell line (MIN6); assay: Insulin production from pancreatic β cells (MIN6) by TGR5 activation; type: cell-based; conditions: 40 μg/mL, 25 mM glucose, compared with PLGA particles
Method: Concentration of insulin was measured using an Ultrasensitive Insulin ELISA kit (ALPCO). […] The pAkt production from CHO cells incubated with fresh or denatured insulin was compared to calculate percent bioactivity.
Concentration of insulin was measured using an Ultrasensitive Insulin ELISA kit (ALPCO).

[5] = cited from earlier work

For `CCCCCCCCCCCCCCCCCCN1C(=CC=CC=CC=CC2=[N+](CCCCCCCCCCCCCCCCCC)c3ccccc3C2(C)C)C(C)(C)c2ccccc21.[I-]` [DIR, 1,1′-dioctadecyl-3,3,3′,3′-tetramethylindotricarbocyanine iodide], the Loading of agent [1] was 6.7 μg per mg of particles, the “ΔY (Final-Initial)” value [2] was 1.42 % Initial Dose/cm^3 and the “k (clearance rate)” value ([2]; one phase decay fit) was ~0.01 h⁻¹.

In the case of `CC(CCC(=O)O)C1CC[C@H]2[C@@H]3[C@@H](O)C[C@@H]4C[C@H](O)CC[C@]4(C)[C@H]3CC[C@]12C` (stereo partly shown) [UDCA, urso-deoxycholic acid], the “effect on IL-1β, nitric oxide, TNF-α” value (rat microglia) is given as “reduce IL-1β and nitric oxide, and downregulate TNF-α”, the “effect on mitochondrial function and Drp1” value [3] is given as “improve mitochondrial function and redistributes Drp1” and the “insulin secretion from pancreatic β cells” value [4] is given as “able to induce insulin secretion”.

For `CCN(CC)c1ccc2cc(-c3nc4ccccc4s3)c(=O)oc2c1` [coumarin 6], the Loading of agent [1] is given as 84.3 μg per mg of particles and the “Log P” value [5] is given as 1.8.

For insulin, the Loading of agent [1] was 0.02 μg per mg of particles and the “loading of INS in pUDCA NPs” value [1] was “approximately 20 ng/mg of NP”.
